# Laboratory results reported in paper PMC7024221, “The Application of Reversible Intramolecular Sulfonamide Ligation to Modulate Reactivity in Organometallic Ruthenium(II) Diamine Complexes” (Molecules, 2020).
# “Also recorded” adds a separate entry of the source. Read-outs that look alike come from different tables or passages of the source. Marks after values point to notes of the source that are not given here.
# Experiments:
# [1] = system: HT-29 cell line; test: MTT cytotoxicity assay; format: cell-based, human; settings: HT-29, concentrations up to 100 µM, 72 h
# Protocol: Having established the ability of 4 to coordinate to biologically relevant ligands in a pH-dependent manner we evaluated the cytotoxicity of 4 (and 6 as a control unable to form an intramolecular chelate) against the HT-29 cell line using the MTT assay. In light of the potential non-covalent interaction of 4 with protein as described earlier these assays were performed for both 4 and 6 using media containing 10% and 1% fetal calf serum to assess the effect of serum concentration on cytotoxicity. […] It is clear that while 6 is readily able to coordinate to 5′-GMP and L-histidine, and presumably forms biomacromolecular adducts in cell culture experiments, the nature and/or level of adducts formed is not detrimental to HT-29 cell viability. The ability of 4 to form biomacromolecular adducts in cell culture conditions will be less than that of 6 due to substantial intramolecular sulfonamide ligation under these pH conditions. […]
# HT-29 (human colon adenocarcinoma) cells were counted and the concentration adjusted to 3 × 10^4 cells/.mL 100 µL of the cell suspension was dispensed into the wells of a 96 well plate. […] The results were read on a plate reader (Biotek ELX800 Universal Microplate Reader) at 570 nm. The viability of the cells is expressed as % of cell survival of each dilution against the “cells only” control taken as 100% survival. […]
# [2] = Conversion of chelate form to open form in citrate/phosphate buffer, 19F NMR; format: physicochemical; settings: 310 K
# Protocol: To gain further insight into the reactivity of 4 the conversion of the chelate form to open form of the complex was probed in three different citrate/phosphate buffer solutions at 310 K (Figure 9). Aqueous solutions of 4 at pD 7.61 (where the chelate form of the complex exists exclusively) were diluted into citrate/phosphate buffer to yield solutions at pD 4.12, 4.91 and 5.96 (2.46 mM complex, 0.1 M NaCl). The conversion of the chelate form to the open form was monitored by ^19F NMR spectroscopy over 16 h. Under the most acidic conditions (pD 4.12) equilibrium was reached within the 16 h experiment duration, with 93% of 4 converting to the open form.
# The conversion of the chelate-form of 4 to the activated open-form was investigated by dilution of a stock solution of 4 (D2O, 0.1 M NaCl) into citrate/phosphate buffer solutions (D2O, 0.1 M NaCl) at pD 4.12, 4.91 and 5.96 to yield solutions at a final complex concentration of 2.46 mM. The samples were maintained at 310 K within the NMR spectrometer and ^19F NMR spectra were recorded every 15 min for 16 h. The ratio of the –CF3 signals corresponding to the open- and chelate-forms of the complex were determined to allow a plot of % open-form versus time. The fitting of the equation y = C + A(1−e^−kx) (C-offset from zero; A-amplitude of the curve) to each set of experimental data yielded the half-life for the fraction of the chelate-form of 4 which is converted to the open-form.
# [3] = Solution stability (NaCl, arene loss on standing of NMR solution); format: physicochemical; settings: standing for extended periods of time (>24 h)
# Protocol: A total of six half-sandwich ruthenium(II) arene complexes were synthesized for evaluation in this study (Figure 2). [Ru(η^6-C6H5CH2CH2NHR)(en)(Cl)]PF6 (R = Ms (1), tresyl (Tr) (2), Tf (3) or acetyl (6)) and [Ru(η^6-C6H5(CH2)3CH2NHTf)(en)(Cl)]PF6 (5) were prepared via reaction of the respective [RuCl2(η^6-C6H5(CH2)nCH2NHR)]2 (R = acetyl, Ms, Tf or Tr) complex with ethylenediamine followed by the addition of NH4PF6 then crystallization of the product by concentration of the methanol solution or via vapor diffusion with diethyl ether. [Ru(η^6:κ^1-C6H5(CH2)2CH2NTf)(en)]PF6 (4) was prepared via the reaction of [RuCl2(η^6-C6H5(CH2)2CH2NHTf)]2 with ethylenediamine then treatment with silver carbonate and triethylamine, followed by addition of NH4PF6 and precipitation of the product by concentration and cooling. All complexes are soluble in water (≥5 mM) and stable in the presence of NaCl (100 mM). All complexes were characterized by ^1H, ^13C and ^19F NMR spectroscopy, high resolution mass spectrometry and elemental analysis.
# During these studies it was observed that for 1–3 arene-ruthenium cleavage began to occur on standing of the NMR solution for even relatively short periods of time (>1 h) (Figures S12–S14).
# [4] = system: 5′-GMP; test: NMR binding study with the model ligand 5′-GMP; settings: 1 eq. 5′-GMP, 2.46 mM complex, phosphate buffer 0.2 M, 310 K, 0.1 M NaCl
# Protocol: (§1) The coordination of a metallodrug, via the metal ion, to biomacromolecular targets is a major mechanism by which biological activity is exerted in many of these complexes. To evaluate the ability of intramolecular sulfonamide ligation to regulate the availability of a coordination site at the ruthenium ion in this family of complexes, and therefore control ligation of endogenous ligands to the complex, binding studies were performed between 4 (and the control compound 6) and the model ligands L-histidine and 5′-GMP. 4 and 6 were incubated with 1 eq. of 5′-GMP or L-histidine (2.46 mM complex, phosphate buffer (0.2 M), 310 K, 0.1 M NaCl) for 144 h at pD values of 7.5 and 6.5 in each case. Incubations were monitored by ^1H and ^19F NMR. […] The degree of L-histidine coordination was not able to be quantified using ^1H NMR due to hydrogen-deuterium exchange which occurs at the histidine C2 proton and low intensity and overlapping peaks, but was more pronounced at pD 7.5 than pD 6.5. […]
# (§2) The reactivity of 4 and 6 towards 5′-GMP/L-histidine was assessed by mixing stock solutions of the complex and ligand in phosphate buffer (both in D2O, 0.1 M NaCl) to yield 1:1 solutions with each component present at a concentration of 2.46 mM (200 mM buffer concentration, 0.1 M NaCl). […] Samples were incubated at 310 K and monitored using ^1H and ^19F NMR. […]
# [5] = biological target: bovine serum albumin (Bos taurus, UniProt P02769); test: Incubation with bovine serum albumin monitored by 1H and 19F NMR; settings: 72 h, 2.46 mM complex, 0.5 mM BSA, 310 K, pD 7.4
# bovine serum albumin, sequence (P02769 25-607): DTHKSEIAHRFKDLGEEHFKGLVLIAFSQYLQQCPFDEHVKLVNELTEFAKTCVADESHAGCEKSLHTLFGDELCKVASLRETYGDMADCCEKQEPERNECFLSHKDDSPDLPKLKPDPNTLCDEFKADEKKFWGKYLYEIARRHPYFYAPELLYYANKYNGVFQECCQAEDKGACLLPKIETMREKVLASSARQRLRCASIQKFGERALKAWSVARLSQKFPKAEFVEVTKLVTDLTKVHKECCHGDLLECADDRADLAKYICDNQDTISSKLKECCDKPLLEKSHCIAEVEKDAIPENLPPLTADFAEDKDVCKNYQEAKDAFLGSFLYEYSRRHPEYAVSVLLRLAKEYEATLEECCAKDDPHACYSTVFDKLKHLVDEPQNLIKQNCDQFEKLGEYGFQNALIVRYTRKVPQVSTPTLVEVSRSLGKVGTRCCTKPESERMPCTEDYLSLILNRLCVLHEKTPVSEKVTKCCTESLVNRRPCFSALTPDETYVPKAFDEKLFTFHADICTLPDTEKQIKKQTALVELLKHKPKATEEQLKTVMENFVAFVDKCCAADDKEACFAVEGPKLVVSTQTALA
# [6] = pH titration by 1H/19F NMR of open and chelate forms (apparent pKa); format: physicochemical; settings: 2.46 mM complex, D2O, 0.1 M NaCl; for Apparent pKa: Henderson-Hasselbalch fit of % open form versus pD
# Protocol: The ability of the tethered sulfonamide functionality to reversibly ligate to the ruthenium atom in a pH-dependent manner, forming an intramolecular chelate, was examined by recording ^1H NMR spectra of 1–5 (and ^19F NMR spectra for 2–5) (2.46 mM complex, D2O, […], 0.1 M NaCl) as a function of pH. Within these spectra two unique sets of signals were observed, the relative proportion of these being pH-dependent, that were assigned to the open and chelate forms of the complexes (Figures S12–S15). Plotting the percentage of open form of the complex, calculated from the ratio of selected ligand signals corresponding to the open and chelate forms of the complexes, versus pD yielded sigmoidal curves in each case and apparent pKa values for 1–5 (Table 1) were determined by fitting of the Henderson-Hasselbalch equation to the data (Figure 7 and Figure 8).
# pH titrations of 1–6 and [Ru(η^6-C6H5CH2CH2NHTr)(C2O4)(H2O)] were conducted by adjustment of the pD of solutions of the complexes (2.46 mM, 295 K, 0.1 M NaCl) in D2O through addition of 1–5 µL aliquots of NaOD (3.6 wt.%) and DCl (1.8 wt.%) solutions in D2O. Following pD adjustment the solutions were left to equilibrate (for 1–6 this was up to 36 h) then the ^1H and ^19F spectra of each were recorded. The ratio of selected ligand signals (for example –CH3 for 1, arene resonances for 2, –CF3 for 3–5) corresponding to the open- and chelate-forms of the complex were determined for each pD value and enabled a plot of % open-form versus pD. pKa values were calculated through fitting of the Henderson-Hasselbalch equation to the data.
# [7] = NMR binding study with the model ligand L-histidine; settings: 1 eq. L-histidine, 2.46 mM complex, phosphate buffer 0.2 M, 310 K, 0.1 M NaCl
# Protocol: as §1, §2
# [8] = cited from earlier work
# [9] = design: method as in doi:10.1021/acs.organomet.7b00868; settings: R = Ms, Tf; reported previously; cited from earlier work
compound,measurement,setting,value
[Ru(η^6:κ^1-C6H5(CH2)2CH2NTf)(en)]PF6 [Complex 4],Inhibition of cell growth (MTT),[1]; media with 1% fetal calf serum,no significant inhibition of cell growth
same,Inhibition of cell growth (MTT),[1]; media with 10% fetal calf serum,no significant inhibition of cell growth
same,Fraction converted to the open form at equilibrium,"[2]; pD 4.12, equilibrium reached within 16 h, 2.46 mM complex, 0.1 M NaCl",93%
same,Open form present at equilibrium (from data fitting),"[2]; pD 4.91, equilibrium not reached within 16 h",61%
same,Open form present at equilibrium (from data fitting),"[2]; pD 5.96, equilibrium not reached within 16 h",24%
same,Arene loss on standing of the NMR solution,[3],not observed
same,5′-GMP coordinated to the complex,"[4]; pD 6.5, 144 h",16 ± 1.6%
same,5′-GMP coordinated to the complex,"[4]; pD 7.5, 144 h",no coordination
same,Non-covalent interaction with bovine serum albumin (1H NMR signals broader and slightly shifted),[5],non-covalent interactions between 4 and the protein may be occurring
same,Reactivity (covalent interaction) towards bovine serum albumin,"[5]; phosphate buffer 0.2 M, 0.1 M NaCl",lack of reactivity; also recorded: no covalent interaction
same,Apparent pKa,[6],4.82
same,Coordination of L-histidine to the complex,"[7]; pD 6.5, 144 h",lack of reactivity; also recorded: No coordination
same,Coordination of L-histidine to the complex,"[7]; pD 7.5, 144 h",lack of reactivity; also recorded: no coordination
[Ru(η^6-C6H5(CH2)3CH2NHTf)(en)(Cl)]PF6 [Complex 5],Arene loss on standing of the NMR solution,[3],not observed
same,Apparent pKa,[6],8.00
"Nc1nc2c(ncn2[C@@H]2O[C@H](COP(=O)([O-])[O-])[C@@H](O)[C@H]2O)c(=O)[nH]1.[Na+].[Na+] [5′-GMP, guanosine 5′-monophosphate disodium salt]",pKa of the N7 position,[8],2.57
[Ru(η^6-C6H5CH2CH2NHMs)(C2O4)(H2O)],Apparent pKa for the Analogous [Ru(η^6-C6H5CH2CH2NHR)(C2O4)(H2O)] Complex,[9],6.65 ^‡
N[C@@H](Cc1c[nH]cn1)C(=O)O [L-histidine],side chain pKa,[8]; imidazole,6.07
[Ru(η^6-C6H5CH2CH2NHTf)(C2O4)(H2O)],Apparent pKa for the Analogous [Ru(η^6-C6H5CH2CH2NHR)(C2O4)(H2O)] Complex,[9],4.05 ^‡
[Ru(η^6-C6H5CH2CH2NHTr)(C2O4)(H2O)],Apparent pKa for the Analogous [Ru(η^6-C6H5CH2CH2NHR)(C2O4)(H2O)] Complex,"[6]; R = Tr, 295 K",5.75
"cis-[PtCl(Me2N(CH2)2PPh2-N,P)(Me2N(CH2)2PPh2-P)]Cl","pKa (ring-open/ring-closed equilibrium, pH titrations)",[8],6.9
